Our source for the IC50 values is patent US8263595B2, “Triazolopyridine compounds and their use as ask inhibitors” (Merck Serono SA, priority 2007, dated 2012).

The term IC50 denotes the concentration at which inhibition is half-maximal.

Molecules are shown by their SMILES. Structures can show the parent of a compound that is named as a salt.

This assay deals with T1, human recombinant ASK1 (Homo sapiens, UniProt Q99683).
T1 sequence (Q99683 1-1374): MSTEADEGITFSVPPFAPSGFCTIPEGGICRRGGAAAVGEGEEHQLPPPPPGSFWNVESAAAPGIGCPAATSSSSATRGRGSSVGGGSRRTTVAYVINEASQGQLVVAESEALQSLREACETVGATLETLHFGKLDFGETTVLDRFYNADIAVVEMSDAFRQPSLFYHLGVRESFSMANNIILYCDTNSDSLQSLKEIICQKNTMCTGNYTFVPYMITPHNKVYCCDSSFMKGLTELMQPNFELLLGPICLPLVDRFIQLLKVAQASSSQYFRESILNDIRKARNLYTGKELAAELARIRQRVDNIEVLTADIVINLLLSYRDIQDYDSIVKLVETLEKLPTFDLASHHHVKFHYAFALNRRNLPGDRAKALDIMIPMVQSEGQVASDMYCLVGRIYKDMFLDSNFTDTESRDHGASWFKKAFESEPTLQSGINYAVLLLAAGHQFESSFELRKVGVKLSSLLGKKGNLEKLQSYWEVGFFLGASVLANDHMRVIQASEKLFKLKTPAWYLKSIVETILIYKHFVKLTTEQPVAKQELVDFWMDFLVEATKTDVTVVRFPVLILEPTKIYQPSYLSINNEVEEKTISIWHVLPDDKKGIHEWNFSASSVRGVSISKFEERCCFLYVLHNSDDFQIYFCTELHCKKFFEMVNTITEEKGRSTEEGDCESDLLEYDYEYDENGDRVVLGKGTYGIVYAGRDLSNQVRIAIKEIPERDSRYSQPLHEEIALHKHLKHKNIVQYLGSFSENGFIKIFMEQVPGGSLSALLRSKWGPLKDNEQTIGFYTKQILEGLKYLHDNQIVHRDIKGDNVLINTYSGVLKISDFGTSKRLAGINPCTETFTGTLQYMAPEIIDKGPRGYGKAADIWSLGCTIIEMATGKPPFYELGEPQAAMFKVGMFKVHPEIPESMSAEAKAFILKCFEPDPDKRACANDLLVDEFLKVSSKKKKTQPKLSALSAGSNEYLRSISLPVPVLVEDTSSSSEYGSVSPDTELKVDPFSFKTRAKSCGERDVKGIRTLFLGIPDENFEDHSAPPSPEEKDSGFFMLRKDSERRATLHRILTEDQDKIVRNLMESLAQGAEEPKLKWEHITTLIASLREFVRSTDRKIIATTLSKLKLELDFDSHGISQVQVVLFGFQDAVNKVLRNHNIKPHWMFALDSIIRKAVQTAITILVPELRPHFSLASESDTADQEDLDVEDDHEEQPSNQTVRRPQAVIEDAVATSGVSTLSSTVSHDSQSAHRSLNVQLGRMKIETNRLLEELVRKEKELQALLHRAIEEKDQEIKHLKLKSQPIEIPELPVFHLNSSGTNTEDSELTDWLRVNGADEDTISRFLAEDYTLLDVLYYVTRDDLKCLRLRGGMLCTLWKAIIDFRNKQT
Kind of assay: Enzyme inhibition assay (in vitro ASK1 assay), luciferase-based measurement of remaining ATP. To be noted: human recombinant ASK1, MBP and ATP as substrates, 180 minutes at 30° C.; triplicates on at least 2 separate occasions. The format is biochemical. As for the experimental part: Assays were performed in a 384 well plate (Corning, #3654) format, using the human recombinant ASK1 as an enzyme and MBP (myelin basic protein, Upstate/Millipore, #13-104) with ATP as substrates. Assay read out was the measurement of the amount of ATP remaining after stopping the reaction, using a luciferase-based kit from Cambrex.
Compounds to be tested were dissolved in 100% DMSO at a concentration of 10 mM. Subsequent dilutions were performed in 100% DMSO using a Biomek FX Workstation. 5 μL of diluted compound or vehicle (6% DMSO) was distributed to a 384 well plate. 5 μL of substrates (ATP 7.5 μM, MBP 450 ng/μL) diluted in ASK1 buffer (20 mM Tris HCl pH 7.4, 0.001% Brij35, 0.01% BSA, 5 mM MgCl2, 1 mM DL-Dithiothreitol) were added, followed by 5 μL at of human recombinant ASK1 enzyme (22.5 ng/mL) diluted in ASK1 buffer in order to start the reaction. The reaction ran for 180 minutes at 30° C. before the addition of 5 μL of stop solution (Cambrex, #LT23-231). 10 μL of Pklight ATP detection reagent (Cambrex #LT23-233) were added. After 120 min of incubation, luminescence was measured on a Perkin-Elmer Victor 2 spectrofluorimeter. The percentage of inhibition relative to the fluorescence observed in the presence of solvent (1% DMSO) alone was determined. The IC50 values for inhibition were determined in triplicates on at least 2 separate occasions.
In the case of `O=C(Nc1nc2cccc(-c3ccoc3)n2n1)c1ccc(C(F)(F)F)cc1` [Example 3, N-[5-(3-furyl)[1,2,4]triazolo[1,5-a]pyridin-2-yl]-4-(trifluoromethyl)benzamide], the IC50 is 8 ± 0.4 µM.

For `COCC(=O)Nc1nc2cccc(-c3ccoc3)n2n1` [Example 5, N-[5-(3-furyl)[1,2,4]triazolo[1,5-a]pyridin-2-yl]-2-methoxyacetamide], the half-inhibitory concentration (IC50) was determined as 17 ± 5 µM.

Turning to `COC(=O)CCC(=O)Nc1nc2cccc(-c3ccoc3)n2n1` [Example 7, methyl 4-{[5-(3-furyl)[1,2,4]triazolo[1,5-a]pyridin-2-yl]amino}-4-oxobutanoate], the IC50 amounted to 7 ± 1 µM.

Take `O=C(Nc1nc2cccc(-c3ccc[nH]3)n2n1)C1CCCC1` [Example 10, N-[5-(1H-pyrrol-2-yl)[1,2,4]triazolo[1,5-a]pyridin-2-yl]cyclopentanecarboxamide]: the IC50 came to 16 ± 4 µM.

On to `O=C(Nc1nc2cccc(-c3cn[nH]c3)n2n1)c1ccccc1` [Example 12, N-[5-(1H-pyrazol-4-yl)[1,2,4]triazolo[1,5-a]pyridin-2-yl]benzamide], for which the IC50 came to 14.8 ± 0.2 µM.

Regarding `O=C(Nc1nc2cccc(NCc3ccco3)n2n1)c1ccccc1` [Example 44, N-{5-[(2-furylmethyl)amino][1,2,4]triazolo[1,5-a]pyridin-2-yl}benzamide], the IC50 was 6.9 ± 0.05 µM.

For the molecule `O=C(Nc1nc2cccc(NCC3CCCO3)n2n1)c1ccccc1` (stereo not shown) [Example 45, N-{5-[(tetrahydrofuran-2-ylmethyl)amino][1,2,4]triazolo[1,5-a]pyridin-2-yl}benzamide], the IC50 was 3.38 µM.

For the molecule `CCC(CO)Nc1cccc2nc(NC(=O)c3ccccc3)nn12` (stereo not shown) [Example 50, N-(5-{[1-(hydroxymethyl)propyl]amino}[1,2,4]triazolo[1,5-a]pyridin-2-yl)benzamide], the IC50 came out at 8 ± 1 µM.

On to `CC(C)(C)OC(=O)NCc1ccc(C(=O)Nc2nc3cccc(-c4ccoc4)n3n2)cc1` [Example 52, tert-butyl[4-({[5-(3-furyl)[1,2,4]triazolo[1,5-a]pyridin-2-yl]amino}carbonyl)benzyl]carbamate], for which the IC50 is 1.7 ± 0.2 µM.

With `COc1cc(-c2ccc3nc(NC(=O)c4ccccc4)nn3c2)ccc1O` [Example 56, N-[6-(4-hydroxy-3-methoxyphenyl)[1,2,4]triazolo[1,5-a]pyridin-2-yl]benzamide hydrochloride], the IC50 was found to be 0.99 ± 0.04 µM.

Consider `O=C(Nc1nc2cccc(NC3CCCCCC3)n2n1)c1cccnc1` [Example 61, N-[5-(cycloheptylamino)[1,2,4]triazolo[1,5-a]pyridin-2-yl]nicotinamide dihydrochloride], for which the IC50 is 0.18 ± 0.02 µM.

For the molecule `Cc1ccc(CNc2cccc3nc(NC(=O)c4cccnc4)nn23)o1` [Example 63, N-(5-{[(5-methyl-2-furyl)methyl]amino}[1,2,4]triazolo[1,5-a]pyridin-2-yl)nicotinamide], the IC50 was found to be 9.86 µM.

Regarding `COc1cc(-c2ccc3nc(NC(=O)c4cccnc4)nn3c2)ccc1O` [Example 66, N-[6-(4-hydroxy-3-methoxyphenyl)[1,2,4]triazolo[1,5-a]pyridin-2-yl]nicotinamide hydrochloride], the IC50 turned out to be 0.26 ± 0.01 µM.

In the case of `CN1CCC(Nc2cccc3nc(NC(=O)c4ccccc4)nn23)CC1` [Example 72, N-{5-[(1-methylpiperidin-4-yl)amino][1,2,4]triazolo[1,5-a]pyridin-2-yl}benzamide], the IC50 was 4.08 µM.

Take `O=C(Nc1nc2cc(C(F)(F)F)cc(NC3CCCCC3)n2n1)c1cccnc1` [Example 74, N-[5-(cyclohexylamino)-7-(trifluoromethyl)[1,2,4]triazolo[1,5-a]pyridin-2-yl]nicotinamide]: the IC50 worked out at 0.12 ± 0.01 µM.

For the molecule `O=C(Nc1nc2cccc(NC3CCCOC3)n2n1)c1ccccc1` (stereo not shown) [Example 81, N-[5-(tetrahydro-2H-pyran-3-ylamino)[1,2,4]triazolo[1,5-a]pyridin-2-yl]benzamide], the IC50 came to 1.66 ± 0.05 µM.

For `O=C(Nc1nc2cccc(SC3CCCCC3)n2n1)c1cccnc1` [Example 83, N-[5-(cyclohexylthio)[1,2,4]triazolo[1,5-a]pyridin-2-yl]nicotinamide], the IC50 was found to be 1.9 ± 0.2 µM.

Take `O=C(Nc1nc2cccc(NC3CCCCC3)n2n1)c1ccc(N2CCOCC2)nc1` [Example 86, N-[5-(cyclohexylamino)[1,2,4]triazolo[1,5-a]pyridin-2-yl]-6-morpholin-4-ylnicotinamide]: the IC50 was determined as 0.11 ± 0.05 µM.

In the case of `CN(C)Cc1ccc(C(=O)Nc2nc3cccc(NC4CCCCC4)n3n2)cc1` [Example 87, N-[5-(cyclohexylamino)[1,2,4]triazolo[1,5-a]pyridin-2-yl]-4-[(dimethylamino)methyl]benzamide], the IC50 turned out to be 5.96 µM.

`O=C(Nc1nc2cc(C(F)(F)F)cc(NCC3CC3)n2n1)c1cccnc1` [Example 89, N-[5-[(cyclopropylmethyl)amino]-7-(trifluoromethyl)[1,2,4]triazolo[1,5-a]pyridin-2-yl]nicotinamide]: the IC50 came out at 0.46 ± 0.05 µM.

For the molecule `COC(=O)[C@H]1CC[C@H](Nc2cc(C(F)(F)F)cc3nc(NC(=O)c4cccnc4)nn23)CC1` [Example 90, methyl trans-4-{[2-[(pyridin-3-ylcarbonyl)amino]-7-(trifluoromethyl)[1,2,4]triazolo[1,5-a]pyridin-5-yl]amino}cyclohexanecarboxylate], the IC50 worked out at 0.7 ± 0.1 µM.

On to `CC(C)=Cc1cccc2nc(NC(=O)c3cccnc3)nn12` [Example 94, N-[5-(2-methylprop-1-en-1-yl)[1,2,4]triazolo[1,5-a]pyridin-2-yl]nicotinamide dihydrochloride], for which the IC50 is 5.9 µM.

Turning to `O=C(CCNC(=O)c1ccccc1)Nc1nc2cccc(-c3ccoc3)n2n1` [Example 96, N-(3-{[5-(3-furyl)[1,2,4]triazolo[1,5-a]pyridin-2-yl]amino}-3-oxopropyl)benzamide], the IC50 turned out to be 0.99 ± 0.11 µM.

As for `CC(C)Nc1cc(C(F)(F)F)cc2nc(NC(=O)c3cccnc3)nn12` [Example 99, N-[5-(isopropylamino)-7-(trifluoromethyl)[1,2,4]triazolo[1,5-a]pyridin-2-yl]nicotinamide], the IC50 turned out to be 0.042 ± 0.007 µM.

Regarding `CCC(C)Nc1cc(C(F)(F)F)cc2nc(NC(=O)c3cccnc3)nn12` (stereo not shown) [Example 100, N-[5-(sec-butylamino)-7-(trifluoromethyl)[1,2,4]triazolo[1,5-a]pyridin-2-yl]nicotinamide], the IC50 was 0.056 ± 0.008 µM.

As to `O=C(Nc1nc2cccc(NCC3CCCCC3)n2n1)c1cccnc1` [Example 115, N-{5-[(cyclohexylmethyl)amino][1,2,4]triazolo[1,5-a]pyridin-2-yl}nicotinamide], the IC50 is 0.519 ± 0.113 µM.

Turning to `O=C(Nc1nc2cc(Cl)cc(NC3CCC3)n2n1)c1cccnc1` [Example 118, N-[7-chloro-5-(cyclobutylamino)[1,2,4]triazolo[1,5-a]pyridin-2-yl]nicotinamide], the IC50 came out at 0.087 ± 0.006 µM.

With `O=C(Nc1nc2cc(Cl)cc(NC3CCCCC3)n2n1)c1cccnc1` [Example 120, N-[7-chloro-5-(cyclohexylamino)[1,2,4]triazolo[1,5-a]pyridin-2-yl]nicotinamide], the IC50 was 0.067 ± 0.012 µM.
